The values below come from a compilation of properties of binary mixtures (doi:10.1098/rsos.241459/v2/response1).

A short description of the data set: xn = mol fraction of the nth substance listed. Conditions: 298.15 K, 100 kPa.

Usually viscosity stands for the resistance of a fluid to flow. As for `OCCO` + CCCC[n+]1ccn(C)c1.F[B-](F)(F)F, under “x2 = 0”, the electrical conductivity was determined as 0.001 S/m and the viscosity is on record as 17.41 mPa·s.
The compound `CCCC[n+]1ccn(C)c1.F[B-](F)(F)F` + OCCO displayed a viscosity (x1 = 0.0895) of 15.5 mPa·s; a viscosity (x1 = 0.1758) of 15.52 mPa·s; a viscosity (x1 = 0.3578) of 18.87 mPa·s; a viscosity (x1 = 0.4397) of 21.3 mPa·s; a viscosity (x1 = 0.6482) of 31.97 mPa·s; a viscosity (x1 = 0.8121) of 51.8 mPa·s. In addition, the electrical conductivity by setting is: (x1 = 0.1758) 0.63 S/m; (x1 = 0.3578) 0.727 S/m; (x1 = 0.4397) 0.766 S/m; (x1 = 0.6482) 0.577 S/m.
